In patent publication US8962558B2, “Methods for reducing GnRH-positive tumor cell proliferation using the GnRH antagonist IN3” (priority 1997, dated 2015):
Square brackets hold non-standard residues; d marks the D form. Peptide text beside a SMILES is read from it. * marks the point of attachment. dPhe(4-NHCONH2) = NC(=O)Nc1ccc(C[C@@H](N)C(=O)O)cc1; Dihydroorotyl(S) = O=C1C[C@@H](C(=O)*)NC(=O)N1; d(hArg(Et2)) = CCN=C(NCC)NCCCC[C@@H](N)C(=O)O; dPhe(4-NH2) = Nc1ccc(C[C@@H](N)C(=O)O)cc1; hArg(Et2) = CCN=C(NCC)NCCCC[C@H](N)C(=O)O; dPhe(4-Cl) = N[C@H](Cc1ccc(Cl)cc1)C(=O)O; Phe(4-NH2) = Nc1ccc(C[C@H](N)C(=O)O)cc1; d2Nal = N[C@H](Cc1ccc2ccccc2c1)C(=O)O; Lys(iPr) = CC(C)NCCCC[C@H](N)C(=O)O; NMeY = CN[C@@H](Cc1ccc(O)cc1)C(=O)O; d3Pal = N[C@H](Cc1cccnc1)C(=O)O

How the values were obtained:
[1] = tested on: human glioblastoma cell lines U-87MG or U-373MG, Kaposi sarcoma cell lines KSY-1 or KS-SLK, malignant melanoma cell line MV3 or BLM, medulloblastoma cell line …; assay: Proliferation assay on cell cultures (Example 3); format: cell-based; settings: for anti-proliferative effects in tumor cells: cell lines of Example 3 treated with the substance; for anti-proliferative effect compared with Cetrorelix only: given additionally as a second GnRH antagonist
Experimental: A human cell line, such as the well known human glioblastoma cell lines U-87MG or U-373MG (Pinski et al., supra), or a human cell line such as the well known Kaposi sarcoma cell lines KSY-1 or KS-SLK (Parkash et al., 1996, New England Journal of Medicine, 335, 17, 1261-1269), or a human cell line such as the well known human malignant melanoma cell line MV3 or BLM (Goldbrunner, R. H., et al., 1996, Anticancer Research 16 (6B), 3679-87), or a human medulloblastoma cell line such as the well known cell line Daoy or D283 MED (Stockhammer et al., 1995, J. Neurosurgery, 83, 672-681), or human meningeoma cell cultures (Boyle-Wash, E., et al., 1995, Journal of Endocrinology, 145, 155-161), are cultured as previously described for the above-mentioned cell lines and then treated with a concentration of the GnRH agonist Triptorelin®, GnRH antagonist SB-75 (Cetrorelix®) or GnRH antagonist Ramorelix®. […]
In another embodiment, the above-mentioned cell lines are treated as described by Emons, G., et al., 1993, supra, and Irmer, G., 1995, supra, with a concentration of the GnRH peptide antagonist Ac-D-Nal(2)-D-4-ClPhe-D-Pal-Ser-1-MePal-D-IsopropylLys-Leu-IsopropylLys-Pro-D-AlaNH2 (also known as Ant 135-25; the Mepal portion is known as 1-Methyl-3-[3′-pyridyl]-alanine), Teverelix (also known as Antarelix®), Cetrorelix (also known as Cetrotide®), Abarelix (also known as Plenaxis®), D-63153 (also known as Ozarelix®), acyline, azaline B, antide (also known as Iturelix®), Degarelix (FE200486), Ganirelix, Nal-Glu, Orntide (also known as Ornirelix®), Elagolix, or with antagonist peptidomimetic ((2S)-2-[5-[2-(2-azabicyclo[2,2,2]oct-2-yl)-1,1-dimethyl-2-oxoethyl]-2-(3,5-dimethylphenyl)-1H-indol-3-yl]-N-(2-pyridin-4-ylethyl-)propan-1-amine (also known as “IN3”).
In another embodiment, the cell lines used above were each additionally treated with a second GnRH antagonist, namely one of the GnRH antagonists Cetrorelix®, Ant 135-25, IN3, degarelix, Antarelix®, Antide®, and Ramorelix® or alternatively with one of the GnRH antagonists that have been disclosed in U.S. Pat. Nos. 6,939,88, 6,200,957, 5,296,468, 4,851,385, 7,361,633, 7,288,517, WO/2009/106597 or PCT/EP2009/052326, U.S. Pat. Nos. 5,480,969, 5,198,533, or UK Patent GB 2 246782 B, wherein these additional treatment procedures were carried out in a manner similar to those reported in Emons et al., supra, using SB 75 (Cetrorelix®). […]

[2] = tested on: small cell lung carcinoma cell lines NCI-H1688, NCI-H1417, NCI-H1672, NCI-H1836, DMS-79, DM-553, DMS-114, SW-1271, NCI-H2227, NCI-HI1963, SHP-77 and H-69 AR; assay: Proliferation assay on small cell lung carcinoma cell lines (Example 3); format: cell-based, human; settings: small cell lung carcinoma cell lines treated with the substance
Experimental: In another embodiment, the small cell lung carcinoma cell lines NCI-H1688, NCI-H1417, NCI-H1672, NCI-H1836, DMS-79, DM-553, DMS-114, SW-1271, NCI-H2227, NCI-HI1963 and SHP-77 in addition to the multidrug-resistant small cell lung carcinoma cell line H-69 AR, are cultured as described above and then treated as described by Emons, G., et al., 1993, supra, and Irmer, G., 1995, supra, with various concentrations of the GnRH agonists (D-Lys6)-GnRH, Lutrelin, Histrelin, Nafarelin, Azagly-Nafarelin, Deslorelin, Cystorelin, Decapeptyl, Gonadorelin, GnRH, D-Lys(6)-GnRH II, Lamprey GnRH II, (D-Lys6)-Lamprey GnRH, (D-Lys6)-Lamprey GnRH II and Lamprey GnRH III.
In another embodiment, the small cell lung carcinoma cell lines NCI-H1688, NCI-H1417, NCI-H1672, NCI-H1836, DMS-79, DM-553, DMS-114, SW-1271, NCI-H2227, NCI-HI1963 and SHP-77 in addition to the multidrug-resistant small cell lung carcinoma cell line H-69 AR, are cultured as described above for the above-mentioned cell lines, and then treated as described by Emons, G., et al., 1993, supra, and Irmer, G., 1995, supra, with a concentration of the GnRH antagonist Cetrorelix (also known as Cetrotide®) or with a GnRH peptide antagonist Ac-D-Nal(2)-D-4-ClPhe-D-Pal-Ser-1-MePal-D-IsopropylLys-Leu-IsopropylLys-Pro-D-AlaNH2 wherein Mepal is 1-Methyl-3-[3′-pyridyl]-alanine or Ant 135-25 (also known as Ac-D-Nal(2)-D-4-Cl-Phe-D-Pal-Ser-1-MePal-D-IsopropylLys-Leu-IsopropylLys-Pro-D-AlaNH2), Teverelix (also known as Antarelix®), Cetrorelix (also known as Cetrotide®), Abarelix (also known as Plenaxis®), D-63153 (also known as Ozarelix®), acyline, azaline B, antide (also known as Iturelix®), Degarelix (FE200486), Ganirelix, Nal-Glu, Orntide (also known as Ornirelix®) or with antagonist peptidomimetic ((2S)-2-[5-[2-(2-azabicyclo[2,2,2]oct-2-yl)-1,1-dimethyl-2-oxoethyl]-2-(3,5-dimethylphenyl)-1H-indol-3-yl]-N-(2-pyridin-4-ylethyl-)propan-1-amine (also known as “IN3”).

`CC(=O)N[C@H](Cc1ccc2ccccc2c1)C(=O)N[C@H](Cc1ccc(Cl)cc1)C(=O)N[C@H](Cc1cccnc1)C(=O)N[C@@H](CO)C(=O)N(C)[C@@H](Cc1ccc(O)cc1)C(=O)N[C@H](CC(N)=O)C(=O)N[C@@H](CC(C)C)C(=O)N[C@@H](CCCCNC(C)C)C(=O)N1CCC[C@H]1C(=O)N[C@H](C)C(N)=O` [Abarelix] (Ac-[d2Nal][dPhe(4-Cl)][d3Pal]S[NMeY][dN]L[Lys(iPr)]P[dA]-NH2) was tested, and the “anti-proliferative effects in tumor cells” value (“anti-proliferative effects” for short) [1] was “Significant anti-proliferative effects” and the “anti-proliferative effects” value [2] was “Significant anti-proliferative effects”.
With `CC(C)C[C@H](NC(=O)[C@@H](Cc1c[nH]c2ccccc12)NC(=O)[C@H](Cc1ccc(O)cc1)NC(=O)[C@H](CO)NC(=O)[C@H](Cc1c[nH]c2ccccc12)NC(=O)[C@H](Cc1c[nH]cn1)NC(=O)[C@@H]1CCC(=O)N1)C(=O)N[C@@H](CCCNC(=N)N)C(=O)N1CCC[C@H]1C(=O)NCC(N)=O` [Decapeptyl] the “anti-proliferative effects” value [2] was “Significant anti-proliferative effects”.
In the case of `CC(=O)N[C@H](Cc1ccc2ccccc2c1)C(=O)N[C@H](Cc1ccc(Cl)cc1)C(=O)N[C@H](Cc1cccnc1)C(=O)N[C@@H](CO)C(=O)N[C@@H](Cc1ccc(NC(=O)[C@@H]2CC(=O)NC(=O)N2)cc1)C(=O)N[C@H](Cc1ccc(NC(N)=O)cc1)C(=O)N[C@@H](CC(C)C)C(=O)N[C@@H](CCCCNC(C)C)C(=O)N1CCC[C@H]1C(=O)N[C@H](C)C(N)=O` [Degarelix] (Ac-[d2Nal][dPhe(4-Cl)][d3Pal]S[Phe(4-NH2)](Dihydroorotyl(S))[dPhe(4-NHCONH2)]L[Lys(iPr)]P[dA]-NH2), the “anti-proliferative effects” value [1] is reported as “Significant anti-proliferative effects”, the “anti-proliferative effect compared with Cetrorelix only” value [1] is reported as “significantly stronger anti-proliferative effect” and the “anti-proliferative effects” value [2] is reported as “Significant anti-proliferative effects”.
For `CCNC(=O)[C@@H]1CCCN1C(=O)[C@H](CCCN=C(N)N)NC(=O)[C@H](CC(C)C)NC(=O)[C@@H](Cc1c[nH]c2ccccc12)NC(=O)[C@H](Cc1ccc(O)cc1)NC(=O)[C@H](CO)NC(=O)[C@H](Cc1c[nH]c2ccccc12)NC(=O)[C@H](Cc1cnc[nH]1)NC(=O)[C@@H]1CCC(=O)N1` [Deslorelin], the “anti-proliferative effects” value [1] was “Significant anti-proliferative effects” and the “anti-proliferative effects” value [2] was “Significant anti-proliferative effects”.
`COc1cccc(-c2c(C)n(Cc3c(F)cccc3C(F)(F)F)c(=O)n(C[C@H](NCCCC(=O)O)c3ccccc3)c2=O)c1F` [Elagolix, 4-[[(1R)-2-[5-(2-Fluoro-3-methoxyphenyl)-3-[[2-fluoro-6(trifluoromethyl)phenyl]methyl]-3,6-dihydro-4-methyl-2,6-dioxo-1(2H)-pyrimidinyl]-1-phenylethyl]amino]butanoic acid] was tested, and the “anti-proliferative effects” value [1] was “Significant anti-proliferative effects”.
For `CCN=C(NCC)NCCCC[C@H](NC(=O)[C@H](CC(C)C)NC(=O)[C@@H](CCCCNC(=NCC)NCC)NC(=O)[C@H](Cc1ccc(O)cc1)NC(=O)[C@H](CO)NC(=O)[C@@H](Cc1cccnc1)NC(=O)[C@@H](Cc1ccc(Cl)cc1)NC(=O)[C@@H](Cc1ccc2ccccc2c1)NC(C)=O)C(=O)N1CCC[C@H]1C(=O)N[C@H](C)C(N)=O` [Ganirelix] (Ac-[d2Nal][dPhe(4-Cl)][d3Pal]SY[d(hArg(Et2))]L[hArg(Et2)]P[dA]-NH2), the “anti-proliferative effects” value [1] was “Significant anti-proliferative effects” and the “anti-proliferative effects” value [2] was “Significant anti-proliferative effects”.
For `CC(C)C[C@H](NC(=O)CNC(=O)[C@H](Cc1ccc(O)cc1)NC(=O)[C@H](CO)NC(=O)[C@H](Cc1c[nH]c2ccccc12)NC(=O)[C@H](Cc1cnc[nH]1)NC(=O)[C@@H]1CCC(=O)N1)C(=O)N[C@@H](CCCNC(=N)N)C(=O)N1CCC[C@H]1C(=O)NCC(N)=O` [Gonadorelin], the “anti-proliferative effects” value [1] was “Significant anti-proliferative effects” and the “anti-proliferative effects” value [2] was “Significant anti-proliferative effects”.
In the case of `CCNC(=O)[C@@H]1CCCN1C(=O)[C@H](CCCNC(=N)N)NC(=O)[C@H](CC(C)C)NC(=O)[C@@H](Cc1cn(Cc2ccccc2)cn1)NC(=O)[C@H](Cc1ccc(O)cc1)NC(=O)[C@H](CO)NC(=O)[C@H](Cc1c[nH]c2ccccc12)NC(=O)[C@H](Cc1cnc[nH]1)NC(=O)[C@@H]1CCC(=O)N1` [Histrelin], the “anti-proliferative effects” value [1] is reported as “Significant anti-proliferative effects” and the “anti-proliferative effects” value [2] is reported as “Significant anti-proliferative effects”.
`Cc1cc(C)cc(-c2[nH]c3ccc(C(C)(C)C(=O)N4CC5CCC4CC5)cc3c2[C@H](C)CNCCc2ccncc2)c1` [IN3, (2S)-2-[5-[2-(2-azabicyclo[2,2,2]oct-2-yl)-1,1-dimethyl-2-oxoethyl]-2-(3,5-dimethylphenyl)-1H-indol-3-yl]-N-(2-pyridin-4-ylethyl-)propan-1-amine] was tested, and the “anti-proliferative effects” value [1] was “Significant anti-proliferative effects”, the “anti-proliferative effect compared with Cetrorelix only” value [1] was “significantly stronger anti-proliferative effect” and the “anti-proliferative effects” value [2] was “Significant anti-proliferative effects”.
In the case of `CCNC(=O)[C@@H]1CCCN1C(=O)[C@H](CCCN=C(N)N)NC(=O)[C@H](CC(C)C)N(C)C(=O)[C@@H](Cc1c[nH]c2ccccc12)NC(=O)[C@H](Cc1ccc(O)cc1)NC(=O)[C@H](CO)NC(=O)[C@H](Cc1c[nH]c2ccccc12)NC(=O)[C@H](Cc1cnc[nH]1)NC(=O)[C@@H]1CCC(=O)N1` [Lutrelin], the “anti-proliferative effects” value [1] is reported as “Significant anti-proliferative effects” and the “anti-proliferative effects” value [2] is reported as “Significant anti-proliferative effects”.
With `CC(=O)Nc1ccc(C[C@H](NC(=O)[C@H](CO)NC(=O)[C@@H](Cc2cccnc2)NC(=O)[C@@H](Cc2ccc(Cl)cc2)NC(=O)[C@@H](Cc2ccc3ccccc3c2)NC(C)=O)C(=O)N[C@H](Cc2ccc(NC(C)=O)cc2)C(=O)N[C@@H](CC(C)C)C(=O)N[C@@H](CCCCNC(C)C)C(=O)N2CCC[C@H]2C(=O)N[C@H](C)C(N)=O)cc1` [acyline] (Ac-[d2Nal][dPhe(4-Cl)][d3Pal]S[Phe(4-NH2)](Ac)[dPhe(4-NH2)](Ac)L[Lys(iPr)]P[dA]-NH2) the “anti-proliferative effects” value [1] was “Significant anti-proliferative effects” and the “anti-proliferative effects” value [2] was “Significant anti-proliferative effects”.
